This is an account of results in ChEMBL document CHEMBL1921706, “Discovery of a novel series of melanin-concentrating hormone receptor 1 antagonists for the treatment of obesity” (Bioorg Med Chem Lett, 2011).

Activity calls are given as the source filed them. The calls are words filed in the database; no cut-off is given here.

The target of data set [1] is T1, Melanin-concentrating hormone receptor 1 (Homo sapiens, UniProt Q99705). The experiment in a line: Antagonist activity at human MCHR1 expressed in Jurkat cells co-expressing apoaequorin assessed as inhibition of MCH-induced calcium mobilization by aequorin bioluminescence assay. Type of data set: functional, cell-based. For orientation: Calcium assays in cells follow changes in intracellular calcium, usually with a dye or a luminescent sensor.
T1 sequence (Q99705 whole entry): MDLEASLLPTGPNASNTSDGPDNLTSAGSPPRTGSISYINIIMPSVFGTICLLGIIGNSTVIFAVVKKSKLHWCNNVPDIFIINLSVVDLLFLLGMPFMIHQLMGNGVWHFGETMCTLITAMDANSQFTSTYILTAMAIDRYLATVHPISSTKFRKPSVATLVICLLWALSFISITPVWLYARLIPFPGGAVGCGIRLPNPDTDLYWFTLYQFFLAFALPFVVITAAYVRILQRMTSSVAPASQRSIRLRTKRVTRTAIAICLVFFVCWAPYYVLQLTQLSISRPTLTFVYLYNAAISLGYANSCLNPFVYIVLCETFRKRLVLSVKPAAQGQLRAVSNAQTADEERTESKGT

Data set [2] concerns Rattus norvegicus. Kind of data set: Clearance in rat at 0.5 mg/kg, iv. Type of data set: ADME, organism-based. Details: dose 0.5 mg/kg, route intravenous. Particulars: in vivo.
Data set [3] deals with Rattus norvegicus. The experiment in a line: Antiobesity activity in ICV cannulated rat model assessed as reduction in MCH-induced food intake at 1 mg/kg, po administered 3 hrs before MCH challenge measured after 4 hrs post MCH challenge. Type of data set: functional, organism-based. Details: dose 1 mg/kg.
The nature of data set [4]: Clearance in Beagle dog hepatocytes assessed per 10^6 cells. Type of data set: ADME, cell-based, Canis lupus familiaris, Liver, Hepatocyte.
Data set [5] is described as follows: Clearance in Beagle dog at 0.5 mg/kg, iv. Particulars: in vivo. Type of data set: ADME, organism-based, Canis lupus familiaris. Details: dose 0.5 mg/kg, route intravenous.
Data set [6] is described as follows: Clearance in human hepatocytes assessed per 10^6 cells. Type of data set: ADME, cell-based, Liver, Hepatocyte.
Data set [7] in a line: Clearance in rat hepatocytes assessed per 10^6 cells. The data set is classed as ADME, cell-based, Liver, Hepatocyte.
In data set [8] the target is Melanin-concentrating hormone receptor 2 (Homo sapiens) (UniProt Q969V1). Kind of data set: Binding affinity to human MCHR2.
Chain of Melanin-concentrating hormone receptor 2 (Homo sapiens) (Q969V1 whole entry): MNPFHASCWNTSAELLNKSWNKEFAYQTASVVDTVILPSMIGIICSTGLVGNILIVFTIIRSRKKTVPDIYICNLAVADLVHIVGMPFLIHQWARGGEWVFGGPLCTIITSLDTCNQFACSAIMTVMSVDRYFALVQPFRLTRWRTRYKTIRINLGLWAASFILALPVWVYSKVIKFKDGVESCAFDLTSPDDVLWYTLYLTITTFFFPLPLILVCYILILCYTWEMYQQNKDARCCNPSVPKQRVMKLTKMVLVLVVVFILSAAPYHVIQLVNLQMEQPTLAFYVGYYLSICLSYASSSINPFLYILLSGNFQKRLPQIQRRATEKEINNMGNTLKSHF
Data set [9] in a line: Clearance in rhesus monkey at 0.5 mg/kg, iv. The data set is classed as ADME, organism-based, Macaca mulatta. Details: dose 0.5 mg/kg, route intravenous. Particulars: in vivo.
Data set [10] can be described thus: Volume of distribution at steady state in Beagle dog at 0.5 mg/kg, iv. The data set is classed as ADME, organism-based, Canis lupus familiaris. Details: dose 0.5 mg/kg, route intravenous. Particulars: in vivo, read-out: Vdss.
The subject of data set [11] is Rattus norvegicus. Kind of data set: Antiobesity activity in ICV cannulated rat model assessed as reduction in MCH-induced food intake at 0.2 mg/kg, po administered 3 hrs before MCH challenge measured after 4 hrs post MCH challenge. The data set is classed as functional. Details: scale not given: the % may be the effect or the level left.
Data set [12] has as its target T1, Melanin-concentrating hormone receptor 1. Kind of data set: Displacement of [125I]-MCH from MCHR1 after 2 hrs by beta scintillation counting.
Data set [13] addresses Melanin-concentrating hormone receptor 1 (Macaca fascicularis, UniProt B6F061). Kind of data set: Antagonist activity at cynomolgus monkey MCHR1. The data set is classed as functional.
Data set [14] in a line: Oral bioavailability in Beagle dog at 3 mg/kg. The following applies: in vivo. Type of data set: ADME, organism-based, Canis lupus familiaris.
A short description of data set [15]: Volume of distribution at steady state in rhesus monkey at 0.5 mg/kg, iv. Type of data set: ADME, organism-based, Macaca mulatta. Details: dose 0.5 mg/kg, route intravenous. Particulars: in vivo, read-out: Vdss.
Data set [16] in a line: Mean residence time in rhesus monkey at 3 mg/kg, po. The data set is classed as ADME, organism-based, Macaca mulatta. Details: dose 3 mg/kg, route oral. Particulars: in vivo.
Data set [17] in a line: Volume of distribution at steady state in rat at 0.5 mg/kg, iv. Type of data set: ADME, organism-based. Details: dose 0.5 mg/kg, route intravenous. Particulars: in vivo, read-out: Vdss.
A short description of data set [18]: Oral bioavailability in rhesus monkey at 3 mg/kg. The data set is classed as ADME, organism-based, Macaca mulatta. Particulars: in vivo.
A short description of data set [19]: AUC in Beagle dog at 3 mg/kg, po. The data set is classed as ADME, organism-based, Canis lupus familiaris. Details: dose 3 mg/kg, route oral. The following applies: plasma.
Data set [20] has as its system Cynomolgus monkey. Kind of data set: Antiobesity activity in cynomolgus monkey assessed as reduction of food intake at 10 mg/kg, po measured up to 8 days. The data set is classed as functional, organism-based. Details: dose 10 mg/kg. Particulars: Macaca fascicularis.
The subject of data set [21] is Rattus norvegicus. The experiment in a line: Toxicity in ICV cannulated rat model at 0.2 to 5 mg/kg, po administered 3 hrs before MCH challenge measured after 4 hrs post MCH challenge. The data set is classed as organism-based. Details: dose 0.2-5 mg/kg, route oral. Particulars: in vivo.
The subject of data set [22] is Rattus norvegicus. The experiment in a line: Toxicity in ICV cannulated rat model assessed as behavioural toxicity at 0.2 to 5 mg/kg, po administered 3 hrs before MCH challenge measured after 4 hrs post MCH challenge. Type of data set: organism-based. Details: dose 0.2-5 mg/kg, route oral. Particulars: in vivo.
The subject of data set [23] is Rattus norvegicus. Kind of data set: Antiobesity activity in ICV cannulated rat model assessed as reduction in MCH-induced food intake at 5 mg/kg, po administered 3 hrs before MCH challenge measured after 4 hrs post MCH challenge. The data set is classed as functional, organism-based. Details: dose 5 mg/kg.
Data set [24] can be described thus: Mean residence time in rat at 3 mg/kg, po. Type of data set: ADME, organism-based. Particulars: in vivo. Details: dose 3 mg/kg, route oral.
Data set [25] relates to Rattus norvegicus. Kind of data set: Oral bioavailability in rat at 3 mg/kg. Type of data set: ADME, organism-based. Particulars: in vivo.
The test system of data set [26] is Cynomolgus monkey. Kind of data set: Toxicity in cynomolgus monkey assessed as signs of sedation at 10 mg/kg, po. The data set is classed as organism-based, Macaca fascicularis. Details: dose 10 mg/kg, route oral. The following applies: in vivo.
In data set [27] the target is Melanin-concentrating hormone receptor 1 (Rattus norvegicus, UniProt P97639). Kind of data set: Antagonist activity at rat MCHR1 expressed in HEK293 cells by aequorin bioluminescence assay. Type of data set: functional, cell-based.
Chain of Melanin-concentrating hormone receptor 1 (Rattus norvegicus, UniProt P97639) (P97639 whole entry): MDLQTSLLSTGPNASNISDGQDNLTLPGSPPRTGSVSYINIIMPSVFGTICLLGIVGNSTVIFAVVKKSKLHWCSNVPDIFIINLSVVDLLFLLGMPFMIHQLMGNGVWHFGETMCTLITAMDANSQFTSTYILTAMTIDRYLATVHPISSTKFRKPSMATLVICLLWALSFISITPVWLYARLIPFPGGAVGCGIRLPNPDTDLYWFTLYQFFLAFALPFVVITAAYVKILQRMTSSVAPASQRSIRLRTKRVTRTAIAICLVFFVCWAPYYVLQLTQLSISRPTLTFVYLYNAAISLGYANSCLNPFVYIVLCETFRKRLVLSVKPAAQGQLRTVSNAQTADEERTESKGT
Data set [28] in a line: Clearance in rhesus monkey hepatocytes assessed per 10^6 cells. The data set is classed as ADME, cell-based, Macaca mulatta, Liver, Hepatocyte.
Data set [29] relates to Rattus norvegicus. Kind of data set: AUC in rat at 3 mg/kg, po. Details: dose 3 mg/kg, route oral. Particulars: in vivo. Type of data set: ADME, organism-based, Plasma.
Data set [30] can be described thus: Mean residence time in Beagle dog at 3 mg/kg, po. The data set is classed as ADME, organism-based, Canis lupus familiaris. Details: dose 3 mg/kg, route oral. The following applies: in vivo.
The nature of data set [31]: AUC in rhesus monkey at 3 mg/kg, po. Type of data set: ADME, organism-based, Macaca mulatta. Details: dose 3 mg/kg, route oral. Particulars: plasma.
Data set [32] deals with Cynomolgus monkey. The experiment in a line: Toxicity in cynomolgus monkey at 10 mg/kg, po. Details: dose 10 mg/kg, route oral. Particulars: in vivo. The data set is classed as organism-based, Macaca fascicularis.

Chain of Melanin-concentrating hormone receptor 1 (Macaca fascicularis, UniProt B6F061) (B6F061 whole entry): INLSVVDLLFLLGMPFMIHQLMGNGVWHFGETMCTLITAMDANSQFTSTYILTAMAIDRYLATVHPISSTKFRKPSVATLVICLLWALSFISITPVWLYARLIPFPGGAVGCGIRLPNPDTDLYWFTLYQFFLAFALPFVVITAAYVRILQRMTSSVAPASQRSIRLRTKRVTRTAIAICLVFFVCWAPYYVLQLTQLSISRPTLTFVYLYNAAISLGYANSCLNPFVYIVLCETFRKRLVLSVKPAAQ

For `CC1c2c([nH]c3ccc(C(F)(F)F)cc23)CC2CCN(Cc3ccccc3)CC21` (racemic), the half-maximal inhibitory concentration (IC50) (in general, the concentration at which inhibition is half-maximal) in data set [1] came to 580 nM.
Take `CC1c2c([nH]c3ccc(C(F)(F)F)cc23)CC2CCN(CC3CCCCO3)CC21` (racemic): in [1], the IC50 amounted to 180 nM.
On the same count and under the same terms, for `CC1c2c([nH]c3ccc(Cl)cc23)CC2CCN(C)CC21` (racemic) the value was 100 nM; for `CC1c2c([nH]c3ccc(C(F)(F)F)cc23)CC2CCN(C(=O)c3ccccc3)CC21` (racemic), above 20000 nM.
On the same count and under the same terms, as for `CC1c2c([nH]c3ccc(C(F)(F)F)cc23)CC2CCN(C(=O)C3CCOC3)CC21` (racemic), the figure is above 20000 nM; as for `Cc1ccc2[nH]c3c(c2c1)C(C)C1CN(C)CCC1C3` (racemic), 200 nM.
As for `C[C@H]1c2c([nH]c3ccc(C(F)(F)F)cc23)C[C@H]2CCN(CCCC3CCOCC3)C[C@@H]21`, in the data set with Rattus norvegicus [2], the CL is 3.3 mL/min/kg. The outcome in the data set with Rattus norvegicus [3], with Cynomolgus monkey [20] and in the data set on Rattus norvegicus [23] was Active. Moreover, the half-maximal inhibitory concentration (IC50) in [1] is 6 nM; in [12], 0.5 nM; in data set [13] it was 4 nM; in data set [27], 4 nM. For the same compound, the hepatocyte CLint (as a rule, a measure of how fast metabolising enzymes remove a compound, apart from limits set by blood flow) in [4] is 8 µL/min/1e6 cells; in [6], below 0.3 µL/min/1e6 cells; in data set [7], below 0.3 µL/min/1e6 cells; in data set [28], 4.9 µL/min/1e6 cells. The clearance (as a rule, a measure of how efficiently the substance is removed, as volume per time) was 100 mL/min/kg in data set [5] and 65 mL/min/kg in [9]. Besides, the result in data set [8] was inactive. For the same compound, the Vd stood at 27 L/kg in data set [10], 18 L/kg in data set [15] and 16 L/kg in data set [17]. Also, the Activity is 50% in the data set on Rattus norvegicus [11]; “Non-toxic” in the data set with Rattus norvegicus [21]; “Non-toxic” in the data set on Rattus norvegicus [22]; “Non-toxic” in the data set with Cynomolgus monkey [26]; “Non-toxic” with Cynomolgus monkey [32]. Also, the results for the bioavailability in data set [14] and in data set [18] were 33% and 70%, respectively. The mean residence time (MRT) (in general, the average time that molecules of a dose stay in the body) in [16] was determined as 10 h; in data set [24] it was 28 h; in data set [30] it was 2.5 h. For the same compound, the exposure (AUC) – broadly, the area under the concentration-time curve, a measure of exposure – in data set [19] stood at 268 ng·h/mL; with Rattus norvegicus [29], 4078 ng·h/mL; in data set [31], 907 ng·h/mL. The same compound registered a F in the data set with Rattus norvegicus [25] of 81%.
As to `C[C@H]1c2c([nH]c3ccc(C(F)(F)F)cc23)C[C@H]2CCN(CCN3CCCCC3)C[C@@H]21`, the concentration for half-maximal inhibition (IC50) was 100 nM in data set [1] and 40 nM in [12].
On the same counts, the results for `C[C@@H]1c2c([nH]c3ccc(C(F)(F)F)cc23)C[C@@H]2CCN(CCN3CCOCC3)C[C@H]21` are 1000 nM and 750 nM.
`CC1c2c([nH]c3ccccc23)CC2CCN(C)CC21` (racemic): the IC50 in data set [1] worked out at 1000 nM.
Same read-out and setting: for `CC1c2c([nH]c3cc(Cl)c(Cl)cc23)CC2CCN(C)CC21` (racemic) the value was 50 nM.
Regarding `C[C@H]1c2c([nH]c3ccc(C(F)(F)F)cc23)C[C@H]2CCN(CCCCC3CCOCC3)C[C@@H]21`, the IC50 stood at 50 nM in data set [1] and 4.4 nM in [12].
Turning to `CC1c2c([nH]c3cccc(Cl)c23)CC2CCN(C)CC21` (racemic), the IC50 in data set [1] worked out at 700 nM.
Same read-out and setting: for `COc1ccc2[nH]c3c(c2c1)C(C)C1CN(C)CCC1C3` (racemic) the value was 400 nM.
With `C[C@H]1c2c([nH]c3ccc(C(F)(F)F)cc23)C[C@H]2CCN(CCC3CCOCC3)C[C@@H]21`, the IC50 in data set [1] came to 6 nM; in data set [12], 0.9 nM.
In the case of `CC1c2c([nH]c3ccc(C(F)(F)F)cc23)CC2CCN(C)CC21` (racemic), the 50% inhibitory concentration (IC50) in data set [1] was found to be 100 nM.
Take `C[C@H]1c2c([nH]c3ccc(C(F)(F)F)cc23)C[C@H]2CCN(CCN3CCOCC3)C[C@@H]21`: the concentration for half-maximal inhibition (IC50) in data set [1] was found to be 20 nM; in data set [12], 3 nM.
On the same counts, the results for `C[C@H]1c2c([nH]c3ccc(C(F)(F)F)cc23)C[C@H]2CCN(CCN3CCOCC3=O)C[C@@H]21` are 7 nM and 7 nM.
For `CC1c2c([nH]c3ccc(C(F)(F)F)cc23)CC2CCN(CCN3CCOCC3)CC21` (racemic), in data set [1], the IC50 came out at 20 nM.
On the same count and under the same terms, as for `CC1c2c([nH]c3c(Cl)cccc23)CC2CCN(C)CC21` (racemic), the figure is 1000 nM; as for `CC1c2c([nH]c3ccc(C(F)(F)F)cc23)CC2CCN(CCc3ccccc3)CC21` (racemic), 180 nM; as for `CC1c2c([nH]c3cc(C(F)(F)F)ccc23)CC2CCN(C)CC21` (racemic), 200 nM.
